Results published in US9604996B2 (Bayer Pharma Aktiengesellschaft, priority 2013, dated 2017).
pIC50: −log10 of the molar value.

Biological target: T1, human adenosine A2b receptor (Homo sapiens, UniProt P29275)
T1 construct: expressed in transfected cells; host or cells: CHO-K1 (Chinese Hamster Ovary) with CRE-luciferase reporter
T1 sequence (P29275 1-332): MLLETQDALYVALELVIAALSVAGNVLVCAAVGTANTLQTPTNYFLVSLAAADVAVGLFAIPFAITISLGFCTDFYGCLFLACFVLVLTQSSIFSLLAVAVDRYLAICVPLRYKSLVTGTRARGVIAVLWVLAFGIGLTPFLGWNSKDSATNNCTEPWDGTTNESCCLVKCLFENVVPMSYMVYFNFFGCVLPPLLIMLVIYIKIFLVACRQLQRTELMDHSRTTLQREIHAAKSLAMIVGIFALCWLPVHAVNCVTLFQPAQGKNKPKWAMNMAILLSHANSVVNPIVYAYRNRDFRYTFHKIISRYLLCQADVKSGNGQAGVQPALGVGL
Experiment: Cellular reporter gene (CRE-luciferase) A2b receptor antagonist assay in recombinant CHO-K1 cells stimulated with NECA
Format: cell-based
Conditions: recombinant CHO-K1 cell line, co-incubation with EC50 concentration of NECA, 3 hours, in some cases means, rounded to two significant digits
Protocol: B-1. Cellular In Vitro Tests for Determining A2b Receptor Activity and Adenosine Receptor Selectivity
The identification of selective antagonists of the human adenosine A2b receptor and the quantification of the efficacy and selectivity of the compounds according to the invention was carried out with the aid of recombinant cell lines for the human adenosine receptors A1, A2a, A2b and A3. These cell lines were originally derived from an ovarepithelial cell of the hamster (Chinese Hamster Ovary, CHO-K1, American Type Culture Collection, Manassas, Va. 20108, USA). In addition to the respective recombinantly expressed adenosine receptor for testing the efficacy at the A1, A2a and A2b receptors, the cell lines contain a reporter gene construct where expression of the firefly (Photinus pyralis) luciferase is under the control of a promoter which can be activated via intracellular signal cascades by stimulation of the receptors with the (not subtype-selective) adenosine receptor agonist NECA (5′-N-ethylcarboxamidoadenosine) [S. J. Hill, J. G. Baker, S. Rhees, Curr. Opin. Pharmacol. 1, 526-532 (2001)].
In the case of the A2a and A2b cell lines, this is a minimal promoter having a plurality of cAMP-responsive elements (CRE). Stimulation of the Gs coupled A2b or A2a receptors by NECA ultimately leads, via formation of cAMP, to CRE-dependent induction of luciferase expression, which is detected 3 hours after the start of the incubation with NECA using a detection solution in a suitable luminometer. For testing the antagonists, initially, in a pre-experiment, the concentration of NECA which, at the test day in question, results in half-maximum stimulation of luciferase expression (EC50 concentration) is determined By joint incubation of this EC50 concentration of NECA with the substances to be tested, it is possible to determine their antagonistic activity.

**Q.** With `CCn1c(=O)c2c(C)c(C(=O)N3CCC(O)CC3)sc2n(CCC=C(F)F)c1=O` [Example 19, 1-(4,4-Difluorobut-3-en-1-yl)-3-ethyl-6-[(4-hydroxypiperidin-1-yl)carbonyl]-5-methylthieno[2,3-d]pyrimidine-2,4(1H,3H)-dione] as the compound, how does the pIC50 read?
**A.** The pIC50 was 7.04.

**Q.** With `Cc1c(C(=O)N2CCC(O)CC2)sc2c1c(=O)n(CCc1ccccc1)c(=O)n2CCOC(F)(F)F` [Example 99, 6-[(4-Hydroxypiperidin-1-yl)carbonyl]-5-methyl-3-(2-phenylethyl)-1-[2-(trifluoromethoxy)ethyl]thieno[2,3-d]pyrimidine-2,4(1H,3H)-dione] as the compound, how does the pIC50 read?
**A.** The pIC50 was 8.00.

**Q.** How did the pIC50 turn out when `CCn1c(=O)c2c(C(F)(F)F)c(C(=O)N3CCC(O)CC3)sc2n(CCC(F)(F)F)c1=O` [Example 25, 3-Ethyl-6-[(4-hydroxypiperidin-1-yl)carbonyl]-5-(trifluoromethyl)-1-(3,3,3-trifluoropropyl)thieno[2,3-d]pyrimidine-2,4(1H,3H)-dione] was run?
**A.** The pIC50 was 7.31.

**Q.** `CCC1C(=O)NCCN1C(=O)c1sc2c(c1C)c(=O)n(CC)c(=O)n2CCC(F)(F)F` (racemic) [Example 40, 3-Ethyl-6-[(2-ethyl-3-oxopiperazin-1-yl)carbonyl]-5-methyl-1-(3,3,3-trifluoropropyl)thieno[2,3-d]pyrimidine-2,4(1H,3H)-dione (racemate)] was tested. Which pIC50 did it give?
**A.** The pIC50 was 6.64.

**Q.** `Cc1c(C(=O)N2CCC(O)CC2)sc2c1c(=O)n(CC(C)(O)c1ccccc1)c(=O)n2CCC(F)(F)F` (racemic) [Example 105, 3-(2-Hydroxy-2-phenylpropyl)-6-[(4-hydroxypiperidin-1-yl)carbonyl]-5-methyl-1-(3,3,3-trifluoropropyl)thieno[2,3-d]pyrimidine-2,4(1H,3H)-dione] was tested. Which pIC50 did it give?
**A.** Its pIC50 is 7.16.

**Q.** How did the pIC50 turn out when `Cc1c(C(=O)N2CCNC(=O)C2)sc2c1c(=O)n(CCc1ccccc1)c(=O)n2CCC=C(F)F` [Example 27, 1-(4,4-Difluorobut-3-en-1-yl)-5-methyl-6-[(3-oxopiperazin-1-yl)carbonyl]-3-(2-phenylethyl)thieno[2,3-d]pyrimidine-2,4(1H,3H)-dione] was run?
**A.** Its pIC50 is 7.39.

**Q.** How did the pIC50 turn out when `CCn1c(=O)c2c(C(F)F)c(C(=O)N3CCNC(=O)C3)sc2n(CCC(F)(F)F)c1=O` [Example 131, 5-(Difluoromethyl)-3-ethyl-6-[(3-oxopiperazin-1-yl)carbonyl]-1-(3,3,3-trifluoropropyl)thieno[2,3-d]pyrimidine-2,4(1H,3H)-dione] was run?
**A.** Its pIC50 is 7.47.

**Q.** `Cc1c(C(=O)N2CCC(O)CC2)sc2c1c(=O)n(CC(C)c1ccccc1)c(=O)n2CCC(F)(F)F` (racemic) [Example 43, 6-[(4-Hydroxypiperidin-1-yl)carbonyl]-5-methyl-3-(2-phenylpropyl)-1-(3,3,3-trifluoropropyl)thieno[2,3-d]pyrimidine-2,4(1H,3H)-dione (racemate)] was tested. Which pIC50 did it give?
**A.** The pIC50 was 8.20.

**Q.** How did the pIC50 turn out when `Cc1c(C(=O)N2CCC(O)CC2)sc2c1c(=O)n(CCC=C(F)F)c(=O)n2CCC(F)(F)F` [Example 106, 3-(4,4-Difluorobut-3-en-1-yl)-6-[(4-hydroxypiperidin-1-yl)carbonyl]-5-methyl-1-(3,3,3-trifluoropropyl)thieno [2,3-d]pyrimidine-2,4(1H,3H)-dione] was run?
**A.** Its pIC50 is 7.72.

**Q.** `COCCn1c(=O)n(CC(F)(F)c2ccccc2)c(=O)c2c(C)c(C(=O)N3CCC(O)(CO)CC3)sc21` [Example 71, 3-(2,2-Difluoro-2-phenylethyl)-6-{[4-hydroxy-4-(hydroxymethyl)piperidin-1-yl]carbonyl}-1-(2-methoxyethyl)-5-methylthieno[2,3-d]pyrimidine-2,4(1H,3H)-dione] was tested. Which pIC50 did it give?
**A.** The pIC50 was 6.38.

**Q.** `CCn1c(=O)c2c(C(F)F)c(C(=O)N3CCC(O)(CO)CC3)sc2n(CCC(F)(F)F)c1=O` [Example 126] was tested. Which pIC50 did it give?
**A.** Its pIC50 is 7.08.

**Q.** With `Cc1c(C(=O)N2CCC(O)CC2)sc2c1c(=O)n(CC(C)C)c(=O)n2CCC(F)(F)F` [Example 64, 6-[(4-Hydroxypiperidin-1-yl)carbonyl]-3-isobutyl-5-methyl-1-(3,3,3-trifluoropropyl)thieno[2,3-d]pyrimidine-2,4(1H,3H)-dione] as the compound, how does the pIC50 read?
**A.** The pIC50 was 7.35.
